Data reported in patent publication US10370647B2 (priority 2015, dated 2019).

What was measured:
KFtx series = test: Paclitaxel resistance properties of the KFtx series (surviving cells, Cell Titer-Glo); format: cell-based; details: Low and Empty Low (low UCA1 expression); PTx 0 to 500 nM, 48 hours
Method: Paclitaxel resistance properties of the KFtx series comprising the cell line stably expressing UCA1 were compared. The KFtx series were seeded at a cell density of 6×10^3/well on a 96-well plate, and after the cells had been cultured at 37° C. for 12 hours, during which the cells were considered to adhere to the plate, the medium was exchanged with PTx-containing RPMI. The concentrations of PTx were set to be 0, 2, 5, 20, 50, 100, 200, and 500 nM. The cells were further cultured at 37° C. for 48 hours, and the number of surviving cells was then quantified using Cell Titer-Glo (Promega) and was then compared.

Low cells = format: in vivo, BALB/cAJcl-nu/nu mice; details: KF cell-derived tumors (Low group); 7 days after Paclitaxel 1 mg/ml/mouse
KFtx cells = format: in vivo, BALB/cAJcl-nu/nu mice; details: KFTx cell-derived tumors; 7 days after Paclitaxel 1 mg/ml/mouse

## CC(=O)O[C@H]1C(=O)[C@@]2(C)[C@H]([C@H](OC(=O)c3ccccc3)[C@]3(O)C[C@H](OC(=O)[C@H](O)[C@@H](NC(=O)c4ccccc4)c4ccccc4)C(C)=C1C3(C)C)[C@]1(OC(C)=O)CO[C@@H]1C[C@@H]2O [PTx, Paclitaxel]
KFtx series
  number of surviving cells: significantly decreased
Low cells
  tumors disappeared (Rluc imaging): ≥ 95%
KFtx cells
  tumors after administration of PTx (Rluc imaging): remained
